Literature values as cited in article PMC11322901 (Chemical Science, 2024).

Legend:
GST = conditions: read-out: Ki of monovalent EA inhibitor
CaM(Ca2+) = CaM(Ca2+) (Mus musculus, UniProt P0DP26)

Ki (GST) | Compound | Affinity for CaM(Ca2+) (CaM(Ca2+))
1000 to 5000 nM | C=C(CC)C(=O)c1ccc(OCC(=O)O)c(Cl)c1Cl [EA] | 
 | mastoparan | low nanomolar
